Data on one molecule can be found in patent US20220041559A1, “BENZO-AND PYRIDO-PYRAZOLES AS PROTEIN KINASE INHIBITORS” (ROTTAPHARM BIOTECH S.R.L., priority 2019, published 2022).

One test relates to U87MG. Put plainly: Cell viability, ViaCount assay, U87MG. The test is classed as cell-based, human. The following applies: tested cell lines (U87MG, U373). As for the experimental part: U87MG: a human glioblastoma astrocytoma from ATCC. Grown in DMEM medium supplemented with 10% FBS at 37° C. with CO2.
Cell viability and total cell count was performed with ViaCount Assay on Guava® Systems, which was able to distinguish viable and non-viable cells based on differential permeabilities of two DNA-binding dyes in the Guava ViaCount® Reagent. 2×10^4 cancer cells were plated in 24 well in DMEM 10%. After 72 h cells were treated with the different compounds for 24, 72 h or 7 days, with a medium change and a second treatment with the product on day 4. At the end of the incubation period the analysis was done following the kit instructions.

For the next test, the target named is T1, YES kinase (Homo sapiens, UniProt P07947).
T1 construct: purchased Thermo Fisher
Put plainly: ADP-Glo in vitro kinase assay, YES kinase inhibition. The test is classed as biochemical. The following applies: ATP 50 μM, 30 minutes at room temperature. How it is done:
(§1) The ADP-Glo™ Kinase Assay (Promega), monitoring ADP produced in the kinase reaction, was performed in two steps. In the first one, after the kinase reaction, the ADP-Glo™ Reagent is added to terminate the kinase reaction and deplete the remaining ATP. In the second step, the Kinase Detection Reagent is added to simultaneously convert ADP to ATP (ATPn or newly synthesized ATP) and introduce luciferase and luciferin, allowing the ATPn to be measured (luciferase/luciferin reaction). The amount of light generated correlates with the amount of ATPn (indirectly with the ADP produced in kinase reaction).
Kinase reaction was performed in 10 μl in a white 384-well plate, inhibitor solutions in DMSO/Kinase buffer (40 mM Tris-Cl, 20 mM MgCl2, 0.1 mg/ml BSA, 50 μM DTT, pH 7.5) and YES kinase in Kinase buffer (Thermo Fisher, 0.5 ng/μl final concentration in assay) were pre-incubate 15 minutes at room temperature. At the kinase concentration selected, a signal-to negative control ratio >10 was calculated, according to supplier indication. […]
The range of inhibitor concentrations was from 10^−10 M up to 10^−5 M (final concentration in assay) and each experimental point was performed in duplicate. […] The luminescence was measured with a plate-reading luminometer (Envision 2104 Multilabel reader, PerkinElmer). […]

The next test deals with U87MG xenograft. Put plainly: Survival time of intracranial U87MG glioblastoma bearing mice. The following applies: 50 mg/kg orally once a day, day 9 until day 19. The test is classed as in vivo, athymic Nude mice. How it is done:
Human U87MG cancer cell line were implanted in athymic Nude mice by intracranial injection. Mice, divided into two groups, were orally dosed for 10 days either with vehicle or with Compound 5 (50 mg/kg, once a day) from the day 9 until day 19 after injection of tumour cells. The animal survival was tracked over time, mice were monitored for mortality and sacrificed at appearance of signs of distress, neurological deficits, seizure, or significant body weight loss (e.g. >20%).

Another test concerns the target T2, VEGFR2 (KDR) kinase (Homo sapiens, UniProt P35968).
T2 construct: purchased SignalChem
Put plainly: ADP-Glo in vitro kinase assay, VEGFR2 kinase inhibition. The following applies: ATP 50 μM, 30 minutes at room temperature. The test is classed as biochemical. How it is done: as §1
(§2) Kinase reaction was performed in 10 μl in a white 384-well plate, inhibitor solutions in DMSO/Kinase buffer (40 mM Tris-Cl, 20 mM MgCl2, 0.1 mg/ml BSA, 50 μM DTT, pH 7.5) and VEGFR2 (KDR) kinase in Kinase buffer (SignalChem, 0.5 ng/μl final concentration in assay) were pre-incubate 15 minutes at room temperature. At the kinase concentration selected, a signal-to negative control ratio >10 was calculated, according to supplier indication. In samples representing the Total enzymatic activity or the negative control (no enzyme), inhibitor solution was replaced by diluents (1 DMSO in kinase buffer, final concentration) or ultra-pure water, respectively.
(§3) The range of inhibitor concentrations was from 10^−11 M up to 3×10^−6 M (final concentration in assay) and each experimental point was performed in duplicate.
(§4) To start the reaction, a substrate/ATP mix (50 μM final concentration, near to ATP Km value) was added to each sample and after 30 minutes incubation at room temperature, ADP-Glo™ Reagent and Kinase Detection Reagent, incubated in sequence according to the respective incubation time and supplier indication, allowed to stop and develop the kinase reaction. The luminescence was measured with a plate-reading luminometer (Envision 2104 Multilabel reader, PerkinElmer). The percentage of inhibition was calculated towards the Total enzymatic activity and the corresponding curves were analyzed by non linear curve fitting (GraphPad software, version 7 for Windows), allowing to calculate the IC50 value±standard error of the value
Background: ADP-Glo turns the ADP formed in a reaction into a luminescent signal.

The target of the next test is EGFR (Homo sapiens, UniProt P00533). Description: ADP-Glo in vitro kinase assay, EGFR kinase inhibition. The test is classed as biochemical. Set-up: purchased SignalChem. How it is done:
as §1
as §2, with “EGFR” for “VEGFR2 (KDR)”, “2.5” for “0.5”, “selected” for “selected,”, “activity (no inhibitor)” for “activity”
as §3
as §4, with “mix (ATP 10” for “mix (50”, “the estimate.” for “the value”

Molecules are shown by their SMILES.

Sequence of EGFR (P00533 25-1210): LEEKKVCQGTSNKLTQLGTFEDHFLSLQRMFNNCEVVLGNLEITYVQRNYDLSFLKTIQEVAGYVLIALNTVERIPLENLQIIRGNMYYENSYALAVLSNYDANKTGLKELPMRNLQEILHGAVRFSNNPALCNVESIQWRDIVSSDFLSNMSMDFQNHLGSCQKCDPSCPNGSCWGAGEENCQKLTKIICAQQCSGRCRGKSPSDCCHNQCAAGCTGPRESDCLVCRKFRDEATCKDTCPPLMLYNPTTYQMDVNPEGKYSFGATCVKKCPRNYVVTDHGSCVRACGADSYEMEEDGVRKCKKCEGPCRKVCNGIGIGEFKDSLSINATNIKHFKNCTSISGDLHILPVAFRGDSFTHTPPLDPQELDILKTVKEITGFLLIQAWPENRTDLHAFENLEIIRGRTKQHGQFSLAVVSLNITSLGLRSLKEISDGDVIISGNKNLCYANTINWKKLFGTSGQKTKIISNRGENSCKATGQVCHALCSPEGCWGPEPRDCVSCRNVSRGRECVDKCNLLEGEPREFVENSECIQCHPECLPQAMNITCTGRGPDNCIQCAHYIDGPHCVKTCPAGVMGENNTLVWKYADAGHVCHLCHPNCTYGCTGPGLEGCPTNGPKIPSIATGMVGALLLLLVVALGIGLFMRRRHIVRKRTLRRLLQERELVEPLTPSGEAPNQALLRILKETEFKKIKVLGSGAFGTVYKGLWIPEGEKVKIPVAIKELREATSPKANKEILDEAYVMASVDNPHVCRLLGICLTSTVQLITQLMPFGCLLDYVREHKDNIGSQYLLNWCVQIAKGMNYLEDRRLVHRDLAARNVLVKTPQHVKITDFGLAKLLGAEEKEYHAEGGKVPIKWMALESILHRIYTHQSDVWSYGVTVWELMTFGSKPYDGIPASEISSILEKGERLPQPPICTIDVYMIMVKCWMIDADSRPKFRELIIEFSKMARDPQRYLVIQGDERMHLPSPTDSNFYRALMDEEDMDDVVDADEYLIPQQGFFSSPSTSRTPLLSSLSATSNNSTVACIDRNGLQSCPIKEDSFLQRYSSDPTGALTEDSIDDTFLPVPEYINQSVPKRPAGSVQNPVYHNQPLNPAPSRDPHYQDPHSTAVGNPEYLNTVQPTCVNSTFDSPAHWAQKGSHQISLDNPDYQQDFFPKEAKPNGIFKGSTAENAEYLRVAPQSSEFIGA
T2 sequence (P35968 20-1356): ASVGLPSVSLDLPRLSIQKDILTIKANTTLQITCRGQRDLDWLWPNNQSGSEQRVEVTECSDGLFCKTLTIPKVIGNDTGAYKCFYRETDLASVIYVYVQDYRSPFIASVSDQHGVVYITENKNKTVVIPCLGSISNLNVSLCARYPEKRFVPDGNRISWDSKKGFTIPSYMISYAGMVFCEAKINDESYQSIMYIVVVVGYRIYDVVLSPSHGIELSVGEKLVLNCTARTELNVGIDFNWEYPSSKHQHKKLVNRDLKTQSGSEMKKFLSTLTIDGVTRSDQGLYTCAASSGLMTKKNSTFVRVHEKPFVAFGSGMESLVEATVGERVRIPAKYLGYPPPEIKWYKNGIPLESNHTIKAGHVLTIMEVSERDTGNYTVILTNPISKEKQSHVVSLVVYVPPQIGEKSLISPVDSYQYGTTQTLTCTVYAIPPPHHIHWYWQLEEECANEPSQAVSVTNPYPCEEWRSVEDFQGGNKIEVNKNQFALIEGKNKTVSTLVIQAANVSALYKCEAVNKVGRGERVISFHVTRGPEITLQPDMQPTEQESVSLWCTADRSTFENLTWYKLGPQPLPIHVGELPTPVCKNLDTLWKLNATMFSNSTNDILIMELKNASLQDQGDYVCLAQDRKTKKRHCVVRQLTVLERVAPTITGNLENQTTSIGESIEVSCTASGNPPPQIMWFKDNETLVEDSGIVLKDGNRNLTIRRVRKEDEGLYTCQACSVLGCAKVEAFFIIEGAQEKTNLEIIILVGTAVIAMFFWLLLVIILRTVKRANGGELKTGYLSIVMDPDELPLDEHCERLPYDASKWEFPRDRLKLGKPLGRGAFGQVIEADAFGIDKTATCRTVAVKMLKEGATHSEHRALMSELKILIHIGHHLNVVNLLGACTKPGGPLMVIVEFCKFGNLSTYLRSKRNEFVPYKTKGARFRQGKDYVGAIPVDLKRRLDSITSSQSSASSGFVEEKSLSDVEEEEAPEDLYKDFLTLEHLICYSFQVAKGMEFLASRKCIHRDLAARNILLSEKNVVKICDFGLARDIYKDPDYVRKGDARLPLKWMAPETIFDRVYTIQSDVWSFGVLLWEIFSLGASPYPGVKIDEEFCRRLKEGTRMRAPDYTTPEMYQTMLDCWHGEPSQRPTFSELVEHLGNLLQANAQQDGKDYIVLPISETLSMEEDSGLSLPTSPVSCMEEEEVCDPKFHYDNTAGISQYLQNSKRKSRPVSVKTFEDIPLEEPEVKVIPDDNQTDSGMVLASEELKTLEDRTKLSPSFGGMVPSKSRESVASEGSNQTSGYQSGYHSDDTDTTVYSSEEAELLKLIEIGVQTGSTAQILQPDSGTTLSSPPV
T1 sequence (P07947 whole entry): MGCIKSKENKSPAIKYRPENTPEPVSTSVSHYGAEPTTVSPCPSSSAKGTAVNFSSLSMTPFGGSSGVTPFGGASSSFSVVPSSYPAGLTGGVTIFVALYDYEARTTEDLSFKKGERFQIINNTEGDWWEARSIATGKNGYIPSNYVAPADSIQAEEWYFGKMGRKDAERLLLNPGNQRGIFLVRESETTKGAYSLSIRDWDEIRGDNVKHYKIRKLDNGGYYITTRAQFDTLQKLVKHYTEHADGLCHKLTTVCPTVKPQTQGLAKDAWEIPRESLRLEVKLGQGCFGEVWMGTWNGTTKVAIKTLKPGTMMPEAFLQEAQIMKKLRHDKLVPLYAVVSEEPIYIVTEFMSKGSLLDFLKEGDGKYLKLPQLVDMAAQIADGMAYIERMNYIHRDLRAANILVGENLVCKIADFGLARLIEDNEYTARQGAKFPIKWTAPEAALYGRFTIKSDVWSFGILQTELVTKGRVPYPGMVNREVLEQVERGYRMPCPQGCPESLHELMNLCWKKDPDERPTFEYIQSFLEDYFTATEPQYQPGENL

For orientation: IC50 means the concentration that inhibits the measured activity by half. In the case of `CN1CCC(c2ccc(C(=O)Nc3n[nH]c4nc(Nc5ccccc5F)ccc34)cc2)CC1` [Compound 5, N-(6-((2-fluorophenyl)amino)-1H-pyrazolo[3,4-b]pyridin-3-yl)-4-(1-methylpiperidin-4-yl)benzamide], the “reduction of cell viability, result in words” value in the test on U87MG is given as “active in reducing cell viability”. For the same molecule, the half-inhibitory concentration (IC50) at YES kinase was 3.6 nM; on VEGFR2 (KDR) kinase, 82 nM; against EGFR (ATP 10 μM, 30 minutes at room temperature), 6 nM. For the same molecule, the “median survival time from tumour cell injection” value in the test on U87MG xenograft came to 70 days. Further, the “EGFR kinase inhibition, result in words” value on EGFR (text summary of Table 18) is listed as “more active”.
